Data taken from patent publication US7081481B2, “Excitatory amino acid receptor modulators” (Eli Lilly and Company, priority 2000, dated 2006).

Target: T1, mGluR^2 (Homo sapiens, UniProt Q14416)
T1 construct: expressed in transfected cells
Assay: [3H] LY341495 binding displacement at mGluR2
Settings: cells expressing human mGluR subtypes, radioligand [3H] LY341495, read-out: Ki, reversal of [3H] LY341495 binding
Description: (D. D. Schoepp, et al., Neuropharmacol., 1996, 35, 1661–1672 and 1997, 36, 1–11).
(LY341495 is described in Ornstein et al., J. Med. Chem., 1998, 41, 346–357 and J. Med. Chem., 1998, 41, 358 to 378).

T1 sequence (Q14416 19-872): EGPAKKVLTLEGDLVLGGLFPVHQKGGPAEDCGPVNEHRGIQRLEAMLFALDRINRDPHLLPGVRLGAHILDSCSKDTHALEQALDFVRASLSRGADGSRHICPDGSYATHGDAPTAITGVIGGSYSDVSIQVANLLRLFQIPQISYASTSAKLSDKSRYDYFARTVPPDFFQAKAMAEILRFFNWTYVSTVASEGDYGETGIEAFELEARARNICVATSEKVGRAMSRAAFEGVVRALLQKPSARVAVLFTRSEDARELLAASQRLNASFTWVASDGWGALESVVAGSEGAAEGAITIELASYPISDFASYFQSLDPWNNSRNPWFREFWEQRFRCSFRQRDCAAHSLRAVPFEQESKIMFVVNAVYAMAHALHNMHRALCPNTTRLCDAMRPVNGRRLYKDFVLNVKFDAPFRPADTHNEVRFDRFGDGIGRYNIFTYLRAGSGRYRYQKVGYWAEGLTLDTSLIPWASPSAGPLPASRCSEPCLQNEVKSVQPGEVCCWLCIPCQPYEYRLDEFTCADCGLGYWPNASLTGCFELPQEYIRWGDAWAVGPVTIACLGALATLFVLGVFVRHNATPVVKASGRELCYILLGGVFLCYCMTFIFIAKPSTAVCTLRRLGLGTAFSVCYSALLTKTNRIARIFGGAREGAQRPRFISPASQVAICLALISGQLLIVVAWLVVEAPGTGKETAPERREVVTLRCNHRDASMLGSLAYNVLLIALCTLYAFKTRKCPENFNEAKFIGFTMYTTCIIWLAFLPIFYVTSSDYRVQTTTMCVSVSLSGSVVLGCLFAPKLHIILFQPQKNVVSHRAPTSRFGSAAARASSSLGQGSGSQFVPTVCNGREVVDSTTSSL

- Ki: 285 nM
SMILES: N[C@@H](C(=O)O)[C@@H]1[C@H](COC(=O)Nc2ccccc2)[C@H]1C(=O)O (racemic) [Example 1, (2SR,1′SR,2′RS,3′RS)-2-(3′-phenylcarbamoyloxymethyl-2′-carboxycyclopropyl)glycine]
